Test results as given in patent publication US20020034421A1, “Remediation of contaminates including low bioavailability hydrocarbons” (priority 2000, published 2002).
≈ marks a conversion by molar mass, not a printed value. Where “and” joins values, the source holds several entries; their conditions need not be identical. Identical values can stand only once.

Key:
[1] = Logarithm of the octanol: water partition coefficient; cited from earlier work
[2] = Crystal solubility at 25° C.; cited from earlier work
[3] = at 20° C.; cited from earlier work
[4] = Fenton reaction degradation of PAHs in Quakertown silt loam; details: for % reduced / degraded by Fenton reaction: ratio 10:1 ([H2O2:FeSO4]=[2.0 g:0.2 g]), 24-h oxidation, model soil
[5] = Hydrogen peroxide oxidation of PAHs at near neutral pH (modified Fenton's reagent) in Quakertown silt loam
[6] = Fenton reaction degradation of PAHs in MGP soil; details: FR: Fenton's reagent treatment for 24 hours
Description: Coal tar-contaminated soil was collected from a former manufactured gas plant site in New Jersey. The soil was classified as loamy sand, consisting of 78% sand, 11% silt, and 11% clay.
Fenton's reagent was generated by mixing hydrogen peroxide (30%, w/v) with FeSO4.7H2O in varying ratios to determine the optimum conditions for the degradation of PAHs. The sequence of reagent addition seemed to be important to ensure that the reaction occurred efficiently, as well as to ensure that the reaction could be safely maintained. Desired amounts of ferrous sulfate were added to 10 g of PAHs-spiked soil or 5 g of MGP soil in 20 mL of distilled water containing 0.02% HgCl2. To the soil slurry, hydrogen peroxide was introduced gradually by pipetting (ca. 0.3 g each with 10-min intervals), and the reaction was allowed to occur for 24 h on an orbital platform shaker at room temperature.
The soil slurry used for either biodegradation or Fenton-type reaction, or both, was transferred to a 50-mL Teflon centrifuge tube and centrifuged at 18,600× g for 15 min. After removing the supernatant, 10 mL each of dichloromethane and acetone were added to the soil and the soil-solvent suspension was shaken (200 rpm) for 48 h at 30° C. for the extraction of PAHs. The tube was then centrifuged at 18,600× g for 15 min and the solvent mixture was transferred to a 50-mL test tube. After removing excess water (upper layer; ca. 2 mL) by pipetting, 4 g of anhydrous sodium sulfate were mixed with the PAHs-containing solvent to remove residual water completely from solvent. […] The extract was then concentrated to 1 to 2 mL using an evaporator (Büchi Rotavapor; Buchler Instruments Inc., Fort Lee, N.J.) for further analysis.
The extract was passed through a 0.45-μm PTFE syringe filter to remove any particulates present and analyzed by a gas chromatograph (GC) equipped with a flame ionization detector (Varian Star 3500; Varian Chromatograph Systems, Walnut, Calif.). The GC was installed with a Rtx-5 silica column crossbonded with 5% diphenyl and 95% dimethylpolysiloxane (30 m×0.53 mm inner diameter; Restek Corporation, Bellefonte, Pa.). The oven temperature was programmed at 40° C. for 6 min, followed by a linear increase of 10° C. per minute to 300° C., and then the temperature was held for 15 min. Injector and detector temperatures were maintained at 300° C. Two microliters of the extract were injected and nitrogen was used as a carrier gas.

[7] = Hydrogen Peroxide (2g), 100 mg Ferrous Sulfate, Quakertown silt loam
[8] = Hydrogen Peroxide (2g), 200 mg Ferrous Sulfate, Data from TABLE 3
[9] = Hydrogen Peroxide (2g), No FeSO4, Quakertown silt loam
[10] = ratio 5:1, [H2O2:FeSO4] = [1.0 g:0.2 g], 24 h, Quakertown silt loam
[11] = ratio 10:1 (footnote d), [H2O2:FeSO4] = [0.2 g:0.2 g] [sic], 24 h, Quakertown silt loam
[12] = ratio 10:1 (footnote e), [H2O2:FeSO4] = [1.0 g:0.1 g], 24 h, Quakertown silt loam
[13] = ratio head 1.1, [H2O2:FeSO4] = [0.2 g:0.2 g], 24 h, Quakertown silt loam
[14] = mFR + gallic acid, pH ca. 6.0-6.5

SMILES | Log Kow [1] | Solubility in water [2] [µg/mL] | Vapor Pressure [3] | % remaining in soil [4, 7] | % remaining in soil [4, 8] | % remaining in soil [4, 9] | % remaining in soil [4, 10] [b %] | % reduced / degraded by Fenton reaction [4] | % remaining in soil [4, 11] | % remaining in soil [4, 12] | % remaining in soil [4, 13] [a %] | % remaining in soil ([5]; FR + CaCO3, pH ca. 6.0-6.5) [a %] | % remaining in soil ([5]; mFR + catechol, pH ca. 6.0-6.5) | % remaining in soil [5, 14] [b %] | % remaining in soil [6]
c1ccc2cc3ccccc3cc2c1 [Anthracene, anthracene] | 4.45 | 0.07 (≈ 0.393 µM) | 1.9 × 10^−4 | 76.3b % | 61.9c % | 92.7a % | 75.9 | about 40% | 61.9c % | 79.3b % | 100 | 78.1 | 70.8ab % | 66.8 | –
c1ccc2c(c1)cc1ccc3cccc4ccc2c1c34 [Benzo(a)pyrene, benzo(a)pyrene] | – | – | – | 10.5b % | 3.3c % | 73.2a % | 35.3 | – | 3.3% and 3.3c % | 60.9d % | 84.8 | 73.1 | 54.8b % | 49.6 | –
c1ccc2c(c1)ccc1c3ccccc3ccc21 [Chrysene, chrysene] | 5.61 | 0.006 (≈ 0.0263 µM) | 6.3 × 10^−7 | 72.6a % | 88.1b % | 77.0ab % | 87.0 | ~12% | 88.1b % | 98.2c % | 100 | 100 | 100a % | 91.1 | 50.8b %
c1ccc2c(c1)Cc1ccccc1-2 [Fluorene, fluorene] | 4.18 | – | 1.3 × 10^−2 | – | – | – | – | – | – | – | – | – | – | – | 10.3a %
c1ccc2ccccc2c1 [Naphthalene, naphthalene] | – | 32 (≈ 250 µM) | 4.9 × 10^−2 | – | – | – | – | – | – | – | – | – | – | – | –
c1ccc2c(c1)ccc1ccccc12 [Phenanthrene, phenanthrene] | 4.46 | 1.0 (≈ 5.61 µM) | 6.8 × 10^−4 | – | – | – | – | – | – | – | – | – | – | – | 16.8a %
c1cc2ccc3cccc4ccc(c1)c2c34 [Pyrene, pyrene] | 5.32 | – | 6.8 × 10^−7 | 16.3b % | 15.5c % | 88.3a % | 51.0 | – | 15.5c % | 26.3d % | 95.4 | 77.1 | 58.3b % | 58.9 | 53.4a %
